From patent US20110262442A1, “COMPOSITIONS FOR TREATING CNS DISORDERS” (Adenios, Inc., priority 2009, published 2011)

Legend:
blood brain barrier [1] = assay: Fluorimetric analysis of labeled dextrans in brain after i.v. drug administration; assay type: in vivo, mice
Method: C57BL/6 mice from Jackson Laboratories were used as wild types. All mice used were aged 7-9 weeks and weighed between 20-25 g. All rats were aged 8 weeks and weighed 200-220 g. Mice and rats were bred and housed under specific pathogen-free conditions.
The adenosine receptor agonists NECA, CCPA and CGS 21860 were purchased from Tocris. Each was dissolved in DMSO then diluted in PBS to the desired concentration; in most cases final DMSO concentrations were <0.5% (vol/vol). For vehicle controls, DMSO was diluted in PBS to the same concentration. Dehydrated dextrans labeled with either FITC or Texas Red were purchased from Invitrogen and re-suspended in PBS to 10 mg ml^−1. All experiments involving dextran injection used 0.5 mg dextran in PBS. In experiments where drug and dextran were injected concomitantly, 0.5 mg of dextran was mixed with the drug to the desired concentration in a final volume of 200 μl. All injections were retro-orbital i.v. with a 27-gauge needle. In the SCH 58261 experiment, groups were administered vehicle or SCH 58261 for 4 d. Vehicle/drug and dextrans were injected on day 5 and tissues were collected 3 h after vehicle/drug administration. In Lexiscan experiments, Lexiscan was administered i.v. with 3 injections, 5 min apart and tissues were collected at 15 min unless otherwise indicated.
In dose-response experiments and experiments with the A1 AR and A2A AR knock-out mice, drugs and dextrans were injected concomitantly. After 3 h, the mice were anesthetized with ketamine/xylazine and subjected to a nose cone containing isoflurane. They were perfused with 25-50 ml ice-cold PBS through the left ventricle of the heart then decapitated. Their brains were removed, weighed and frozen for later analysis.
Ice-cold 50 mM Tris-Cl (pH 7.6) was added to frozen brains (100 μl per 100 mg brain) and were to thawed on ice. They were homogenized manually with ˜45 strokes of a dounce homogenizer in plastic 1.5 ml microfuge tubes then spun at 16.1 g in a microfuge for 30 min at room temperature (rt). The supernatants were transferred to new tubes and an equal volume absolute methanol was added. The samples were spun again at 16.1 g for 30 min at rt. Supernatant (200 μl) was transferred to a Corning costar 96 well black polystyrene assay plate (clear bottom). Additionally, a series of standards containing 0.001-10 μg ml^−1 dextran in 50% Tris-Cl/50% absolute methanol (vol/vol) was added to each plate. Absolute concentrations of dextrans were derived from these standard curves. Fluorimetric analysis was performed on a BioTek Synergy 4. FITC-dextran was detected at 488/519 (excitation/emission) and Texas Red-dextran was detected at 592/618.

brain endothelial cells = assay: Actin stress fiber induction in brain endothelial cells; assay type: cell-based
Method: To test this brain endothelial cells were treated with either CCPA (to agonize A1 adenosine receptors) or […] (to agonize the A2A adenosine receptor).

blood brain barrier [2] = assay: Fluorimetric analysis of labeled dextrans in brain after i.v. drug administration, rats; assay type: in vivo; conditions: i.v. administration, 10,000 Da dextrans
Method: C57BL/6 mice from Jackson Laboratories were used as wild types. All mice used were aged 7-9 weeks and weighed between 20-25 g. All rats were aged 8 weeks and weighed 200-220 g. Mice and rats were bred and housed under specific pathogen-free conditions. The adenosine receptor agonists NECA, CCPA and CGS 21860 were purchased from Tocris. Each was dissolved in DMSO then diluted in PBS to the desired concentration; in most cases final DMSO concentrations were <0.5% (vol/vol). For vehicle controls, DMSO was diluted in PBS to the same concentration. Dehydrated dextrans labeled with either FITC or Texas Red were purchased from Invitrogen and re-suspended in PBS to 10 mg ml^-1. All experiments involving dextran injection used 0.5 mg dextran in PBS. In experiments where drug and dextran were injected concomitantly, 0.5 mg of dextran was mixed with the drug to the desired concentration in a final volume of 200 μl. All injections were retro-orbital i.v. with a 27-gauge needle. In the SCH 58261 experiment, groups were administered vehicle or SCH 58261 for 4 d. Vehicle/drug and dextrans were injected on day 5 and tissues were collected 3 h after vehicle/drug administration. […] FITC-dextran was detected at 488/519 (excitation/emission) and Texas Red-dextran was detected at 592/618.

[3] = tested on: ICAM-1 on the choroid plexus; assay: Immunohistochemistry of ICAM-1 expression at the choroid plexus after EAE induction; assay type: in vivo; conditions: wild type mice, day 15 post-EAE induction; 2 mg/kg daily; vs DMSO
Source text: (§1) Cd73^−/− mice have been previously described (Thompson et al., “Crucial Role for Ecto-5′-Nucleotidase (CD73) in Vascular Leakage During Hypoxia,” J. Exp. Med. 200:1395-1405 (2004), which is hereby incorporated by reference in its entirety) and have been backcrossed to C57BL/6 for 14 generations. Cd73 mice have no overt susceptibility to infection and appear normal based on the size and cellular composition of their lymphoid organs and their T and B cell responses in in vivo and in vitro assays (Thompson et al., “Crucial Role for Ecto-5′-Nucleotidase (CD73) in Vascular Leakage During Hypoxia,” J. Exp. Med. 200:1395-1405 (2004), which is hereby incorporated by reference in its entirety). C57BL/6 and tcrα^−/− mice on the C57BL/6 background were purchased from The Jackson Laboratories. Mice were bred and housed under specific pathogen-free conditions at Cornell University or the University of Turku. For adenosine receptor blockade experiments, mice were given drinking water supplemented with 0.6 g/L of caffeine (Sigma) or 2 mg/kg SCH58261 (1 mg/kg s.c. and 1 mg/kg i.p.) in DMSO (45% vol. in PBS) or 45% DMSO alone starting 1 day before EAE induction and continuing throughout the experiment. All procedures performed on mice were approved by the relevant animal review committee. […]

[4] = tested on: CNS lymphocyte infiltration; assay: Immunohistochemistry of CD4+ infiltrating lymphocytes in brain and spinal cord after EAE induction; assay type: in vivo; conditions: wild type mice, day 15 post-EAE induction; 2 mg/kg daily; vs DMSO treated
Source text: as §1

blood brain barrier [5] = assay: FITC-Dextran extravasation through the brain endothelium (brain sections); assay type: in vivo, mice; conditions: wild type mice, FIG. 16
Method: In order to examine the effects of caffeine, a general adenosine receptor antagonist, on blood brain barrier permeability, mice were fed caffeine for several days and then injected with FITC Dextran, commonly used to assess endothelial permeability.
More particularly, mice were fed 0.6 g/l caffeine (Sigma, St. Louis, Mo.) in water or regular water ad lib for five days. Mice were injected IP with FITC Dextran (10,000 MW, Molecular Probes, Eugene, Oreg.) and after 30 minutes mice were perfused with ice cold PBS via the left ventricle. Brains were removed and snap frozen in OCT (Tissue Tek, Torrance, Calif.) and stored at −80° C. until sectioning. Tissue sections (5 μm) were stained with hematoxylin for light microscopy and with DAPI for a fluorescent counterstain.

[6] = tested on: Experimental Autoimmune Encephalomyelitis (EAE); assay: MOG-induced EAE induction and daily scoring; assay type: in vivo, mice; conditions: wild type mice; 2 mg/kg (1 mg/kg i.p. and 1 mg/kg s.c.) 1 day prior to EAE induction and daily for 30 days; vs DMSO alone
Source text: Cd73^−/− mice have been previously described (Thompson et al., “Crucial Role for Ecto-5′-Nucleotidase (CD73) in Vascular Leakage During Hypoxia,” J. Exp. Med. 200:1395-1405 (2004), which is hereby incorporated by reference in its entirety) and have been backcrossed to C57BL/6 for 14 generations. Cd73 mice have no overt susceptibility to infection and appear normal based on the size and cellular composition of their lymphoid organs and their T and B cell responses in in vivo and in vitro assays (Thompson et al., “Crucial Role for Ecto-5′-Nucleotidase (CD73) in Vascular Leakage During Hypoxia,” J. Exp. Med. 200:1395-1405 (2004), which is hereby incorporated by reference in its entirety). C57BL/6 and tcrα^−/− mice on the C57BL/6 background were purchased from The Jackson Laboratories. Mice were bred and housed under specific pathogen-free conditions at Cornell University or the University of Turku. For adenosine receptor blockade experiments, mice were given drinking water supplemented with 0.6 g/L of caffeine (Sigma) or 2 mg/kg SCH58261 (1 mg/kg s.c. and 1 mg/kg i.p.) in DMSO (45% vol. in PBS) or 45% DMSO alone starting 1 day before EAE induction and continuing throughout the experiment. All procedures performed on mice were approved by the relevant animal review committee.
EAE was induced by subjecting mice to the myelin oligodendrocyte glycoprotein (“MOG”) EAE-inducing regimen as described in Swanborg, “Experimental Autoimmune Encephalomyelitis in Rodents as a Model for Human Demyelinating Disease,” Clin. Immunol. Immunopathol. 77:4-13 (1995) and Bynoe et al., “Epicutaneous Immunization with Autoantigenic Peptides Induces T Suppressor Cells that Prevent Experimental Allergic Encephalomyelitis,” Immunity 19:317-328 (2003), which are hereby incorporated by reference in their entirety. Briefly, a 1:1 emulsion of MOG35-55 peptide (3 mg/ml in PBS) (Invitrogen) and complete Freund's adjuvant (CFA, Sigma) was injected subcutaneously (50 μl) into each flank. Pertussis toxin (PTX, 20 ng) (Biological Laboratories Inc.) was given intravenously (200 μl in PBS) at the time of immunization and again 2 days later. Mice were scored daily for EAE based on disease symptom severity; 0=no disease, 0.5-1=weak/limp tail, 2=limp tail and partial hind limb paralysis, 3=total hind limb paralysis, 4=both hind limb and fore limb paralysis, 5=death. Mice with a score of 4 were euthanized.

Row | Compound | magnitude of increased BBB permeability compared with NECA administration (blood brain barrier [1]; i.v. administration) | BBB permeability to 10,000 Da dextrans (blood brain barrier [1]; mice, i.v., 3 injections 5 min apart, tissues collected at 15 min) | time after which FITC-dextran was detectable in the brain (blood brain barrier [1]; mice, single i.v. injection) [min] | actin stress fibers compared to vehicle alone (brain endothelial cells) | BBB permeability (blood brain barrier [2]) | entry of 10,000 Da FITC-dextran into brain (blood brain barrier [1]; WT mice, intraperitoneal administration for 4 d, dextran on day 5) | ICAM-1 expression on the choroid plexus following EAE induction [3] | frequency of CD4+ lymphocytes in the brain and spinal cord [4] | FITC-Dextran extravasation across the blood brain barrier (blood brain barrier [5]) | EAE development [6]
1 | CNC(=O)c1cnn(-c2nc(N)c3ncn([C@@H]4O[C@H](CO)[C@@H](O)[C@H]4O)c3n2)c1 [Lexiscan] | much greater | increase BBB permeability to 10,000 Da dextrans | 5 | induction of actin stress fibers was observed | increased BBB permeability in rats |  |  |  |  | 
2 | Nc1nc2c(cnn2CCc2ccccc2)c2nc(-c3ccco3)nn12 [SCH58261, 2-(2-Furanyl)-7-(2-phenylethyl)-7H-pyrazolo[4,3-e][1,2,4]triazolo[1,5-c]pyrimidin-5-amine] |  |  |  |  |  | significantly decreased entry | prevented the up regulation of ICAM-1 | significantly lower frequency | inhibit FITC-Dextran extravasation | dramatically protected against EAE development
